# Where two headings read alike, the source gives them in different places.
# Assays:
# [1] = cited from earlier work
# [2] = in vivo; cited from earlier work
# [3] = Accelerated stability test of crystalline form A (XRPD); assay type: physicochemical; conditions: open, 40° C., RH75%, 3 months (sampled at 1, 2, 3 months)
# Protocol: (§1) XRPD (X-ray Powder Diffraction) Method 1: about 10 mg of a sample is uniformly laid on a single crystal silicon sample disc, and XRPD detection is performed using following parameters. Instrument model: X'Pert^3 X-ray diffractometer; target: Cu-Kα (40 mA, 45 kV); scanning range from 3° to 40° in the 2θ interval.
# [4] = Polymorph study: crystalline form A suspended and pulped in solvents, precipitate assayed by XRPD; assay type: physicochemical; conditions: for Crystalline form after suspension (XRPD): stirred 2 days at 40° C. in darkness
# Protocol: as §1
# The solution was centrifuged to remove the precipitates, which were dried and assayed by XPRD as follows: […]
# [5] = assay type: physicochemical; conditions: for Purity by HPLC, high humidity (RH92.5%) / Purity by HPLC, high temperature (60° C.) / Purity by HPLC, light (4500 ± 500 Lux): hydrochloride
# [6] = Mechanical stability of crystalline form A (XRPD after mechanical treatment); assay type: physicochemical
structure (smiles),measurement,setting,value
CC(=O)[C@H]1CC[C@H]2[C@@H]3CC[C@H]4C[C@H](O)CC[C@]4(C)[C@H]3CC[C@]12C [allopregnanolone],human plasma half-life period,[1],about 45 minutes
same,oral availability,[2],poor
"CC(=O)[C@H]1CC[C@H]2[C@@H]3CC[C@H]4C[C@H](OC(=O)[C@@H](NC(=O)CN)C(C)C)CC[C@]4(C)[C@H]3CC[C@]12C.Cl [crystalline form A, glycine-L-valine 3α-hydroxy-5α-pregnan-20-one ester hydrochloride]",Change of crystalline form (XRPD) after accelerated stability test,[3],no change
same,Crystalline form after suspension (XRPD),[4]; Acetone,Crystalline form A
same,Crystalline form after suspension (XRPD),[4]; Ethanol,Crystalline form A
same,Crystalline form after suspension (XRPD),[4]; Ethyl acetate,Crystalline form A
same,Crystalline form after suspension (XRPD),[4]; Methanol,Crystalline form A
same,Crystalline form after suspension (XRPD),[4]; Methyl tert-butyl ether,Crystalline form A
same,Crystalline form after suspension (XRPD),[4]; Toluene,Crystalline form A
same,Crystalline form after suspension (XRPD),[4]; n-Heptane,Crystalline form A
same,Stability in different solvent systems (conclusion),"[4]; seven solvents, 2 days at 40° C.",remains stable
same,"Purity by HPLC, high humidity (RH92.5%)",[5]; day 0,99.69%
same,"Purity by HPLC, high temperature (60° C.)",[5]; day 0,99.69%
same,"Purity by HPLC, light (4500 ± 500 Lux)",[5]; day 0,99.69%
same,"Purity by HPLC, high humidity (RH92.5%)",[5]; day 5,99.69%
same,"Purity by HPLC, high temperature (60° C.)",[5]; day 5,99.62%
same,"Purity by HPLC, light (4500 ± 500 Lux)",[5]; day 5,99.66%
same,"Purity by HPLC, high humidity (RH92.5%)",[5]; day 10,99.69%
same,"Purity by HPLC, high temperature (60° C.)",[5]; day 10,99.68%
same,"Purity by HPLC, light (4500 ± 500 Lux)",[5]; day 10,99.70%
same,"Purity by HPLC, high humidity (RH92.5%)",[5]; day 30,99.69%
same,"Purity by HPLC, high temperature (60° C.)",[5]; day 30,99.69%
same,"Purity by HPLC, light (4500 ± 500 Lux)",[5]; day 30,99.67%
same,"Stability under high temperature, high humidity and light conditions (conclusion)",[5]; up to 30 days,stable
same,"Effect of grinding, mechanical pulverising and pressure on stability (conclusion)",[6],no effects
same,Crystalline form after mechanical treatment (XRPD),[6]; Ground in an agate mortar for a few minutes,Crystalline form A
same,Crystalline form after mechanical treatment (XRPD),[6]; pressed in a tablet press,Crystalline form A
same,Crystalline form after mechanical treatment (XRPD),[6]; pulverised in a mechanical shredder for a few minutes,Crystalline form A
"CC(=O)[C@H]1CC[C@H]2[C@@H]3CC[C@H]4C[C@H](OC(=O)[C@@H](NC(=O)CN)C(C)C)CC[C@]4(C)[C@H]3CC[C@]12C.Cl [crystalline form B, glycine-L-valine 3α-hydroxy-5α-pregnan-20-one ester hydrochloride]","Purity by HPLC, high humidity (RH92.5%)",[5]; day 0,99.59%
same,"Purity by HPLC, high temperature (60° C.)",[5]; day 0,99.59%
same,"Purity by HPLC, light (4500 ± 500 Lux)",[5]; day 0,99.59%
same,"Purity by HPLC, high humidity (RH92.5%)",[5]; day 5,99.58%
same,"Purity by HPLC, high temperature (60° C.)",[5]; day 5,99.57%
same,"Purity by HPLC, light (4500 ± 500 Lux)",[5]; day 5,99.55%
same,"Purity by HPLC, high humidity (RH92.5%)",[5]; day 10,99.55%
same,"Purity by HPLC, high temperature (60° C.)",[5]; day 10,99.54%
same,"Purity by HPLC, light (4500 ± 500 Lux)",[5]; day 10,99.53%
same,"Purity by HPLC, high humidity (RH92.5%)",[5]; day 30,99.56%
same,"Purity by HPLC, high temperature (60° C.)",[5]; day 30,99.52%
same,"Purity by HPLC, light (4500 ± 500 Lux)",[5]; day 30,99.52%
"CC(=O)[C@H]1CC[C@H]2[C@@H]3CC[C@H]4C[C@H](OC(=O)[C@@H](NC(=O)CN)C(C)C)CC[C@]4(C)[C@H]3CC[C@]12C.Cl [crystalline form C, glycine-L-valine 3α-hydroxy-5α-pregnan-20-one ester hydrochloride]","Purity by HPLC, high humidity (RH92.5%)",[5]; day 0,99.62%
same,"Purity by HPLC, high temperature (60° C.)",[5]; day 0,99.62%
same,"Purity by HPLC, light (4500 ± 500 Lux)",[5]; day 0,99.62%
same,"Purity by HPLC, high humidity (RH92.5%)",[5]; day 5,99.58%
same,"Purity by HPLC, high temperature (60° C.)",[5]; day 5,99.61%
same,"Purity by HPLC, light (4500 ± 500 Lux)",[5]; day 5,99.60%
same,"Purity by HPLC, high humidity (RH92.5%)",[5]; day 10,99.56%
same,"Purity by HPLC, high temperature (60° C.)",[5]; day 10,99.59%
same,"Purity by HPLC, light (4500 ± 500 Lux)",[5]; day 10,99.59%
same,"Purity by HPLC, high humidity (RH92.5%)",[5]; day 30,99.53%
same,"Purity by HPLC, high temperature (60° C.)",[5]; day 30,99.60%
same,"Purity by HPLC, light (4500 ± 500 Lux)",[5]; day 30,99.57%
